Read-outs that look alike come from different tables or passages of the source.
Tests used:
advanced NSCLC [1] = conditions: advanced NSCLC previously treated with chemotherapy, cited from earlier work
[2] = tested on: Lovo colon tumour cell line xenograft; test: Lovo xenograft response to gefitinib; format: in vivo; conditions: Lovo xenograft in nude mice
From the text: (§1) This definition is based on the response observed when the tumour cell line is implanted into nude mice and grown as a xenograft. This definition has been used for all the pre-clinical studies described herein. Initially a small panel of six human tumour cell lines were assembled, three which are sensitive to gefitinib and three which are resistant to gefitinib in the xenograft setting defined above. The sensitive cell lines were; • 1.

KB cell line xenograft = test: KB xenograft response to gefitinib; format: in vivo; conditions: KB xenograft in nude mice
From the text: as §1

[3] = tested on: HT29 colon tumour cell line xenograft; test: HT29 xenograft response to gefitinib; format: in vivo; conditions: HT29 xenograft in nude mice
From the text: as §1

[4] = tested on: MKN45 gastric tumour cell line xenograft; test: MKN45 xenograft response to gefitinib; format: in vivo; conditions: MKN45 xenograft in athymic mice, oral dosing once daily, mean tumour volume
From the text: as §1

[5] = tested on: Calu 6 lung tumour cell line xenograft; test: Calu 6 xenograft response to gefitinib; format: in vivo; conditions: Calu 6 xenograft in nude mice
From the text: as §1

[6] = tested on: PC3 prostate tumour cell line xenograft; test: PC3 xenograft response to gefitinib; format: in vivo; conditions: PC3 xenograft in nude mice
From the text: as §1

[7] = tested on: BT474 breast tumour cell line xenograft; test: BT474 xenograft response to gefitinib; format: in vivo, nude mice
From the text: (§2) This definition is based on the response observed when the tumour cell line is implanted into nude mice and grown as a xenograft. This definition has been used for all the pre-clinical studies described herein. […] BT474 (ATCC No. HTB-20)-breast tumour cell line • b. DU145 (ATCC No. HTB-81)-[…] tumour cell line • c. MCF7 (ATCC No. HTB-22, sourced from ICRP (now CR-UK), London), -breast tumour cell line • d. GEO colon tumour cell line.

[8] = tested on: DU145 tumour cell line xenograft; test: DU145 xenograft response to gefitinib; format: in vivo, nude mice
From the text: as §2

[9] = tested on: MCF7 breast tumour cell line xenograft; test: MCF7 xenograft response to gefitinib; format: in vivo, nude mice
From the text: as §2

[10] = tested on: GEO colon tumour cell line xenograft; test: GEO xenograft response to gefitinib; format: in vivo, nude mice
From the text: as §2

[11] = tested on: A549 lung tumour cell line xenograft; test: A549 xenograft response to gefitinib; format: in vivo; conditions: A549 xenograft in athymic mice, oral dosing once daily, mean tumour volume
From the text: as §2

[12] = tested on: A431 epidermoid cell line xenograft; test: A431 xenograft response to gefitinib; format: in vivo, nude mice
From the text: as §2

[13] = tested on: HX147 lung tumour cell line xenograft; test: HX147 xenograft response to gefitinib; format: in vivo, nude mice
From the text: (§3) This definition is based on the response observed when the tumour cell line is implanted into nude mice and grown as a xenograft. This definition has been used for all the pre-clinical studies described herein.

[14] = tested on: RT112 bladder tumour cell line xenograft; test: RT112 xenograft response to gefitinib; format: in vivo, nude mice
From the text: as §3

[15] = tested on: MiaPac2 pancreatic tumour cell line xenograft; test: MiaPac2 xenograft response to gefitinib; format: in vivo, nude mice
From the text: as §3

[16] = tested on: MDAMB231 breast tumour cell line xenograft; test: MDAMB231 xenograft response to gefitinib; format: in vivo, nude mice
From the text: as §3

[17] = tested on: SW620 colon tumour cell line xenograft; test: SW620 xenograft response to gefitinib; format: in vivo, nude mice
From the text: as §3

advanced NSCLC [18] = conditions: cited from earlier work; for Objective response rate (Complete Response+Partial Response): advanced NSCLC previously treated with chemotherapy

## C#Cc1cccc(Nc2ncnc3cc(OCCOC)c(OCCOC)cc23)c1 [erlotinib]
Advanced NSCLC [1]; across the population
  prolongs survival: ~2 months
Advanced NSCLC [1]
  reduction in risk of death at one year: 41%

## COc1cc2ncnc(Nc3ccc(F)c(Cl)c3)c2cc1OCCCN1CCOCC1 [gefitinib, N-(3-chloro-4-fluorophenyl)-7-methoxy-6-(3-morpholinopropoxy)quinazolin-4-amine]
[2]
  response when grown as a xenograft (sensitive/resistant): sensitive
KB cell line xenograft
  response when grown as a xenograft (sensitive/resistant): sensitive
[3]
  response when grown as a xenograft (sensitive/resistant): sensitive
[4]
  response when grown as a xenograft (sensitive/resistant): resistant
[5]
  response when grown as a xenograft (sensitive/resistant): resistant
[6]
  response when grown as a xenograft (sensitive/resistant): resistant
[7]
  response when grown as a xenograft (sensitive/resistant): sensitive
[8]
  response when grown as a xenograft (sensitive/resistant): sensitive
[9]
  response when grown as a xenograft (sensitive/resistant): sensitive
[10]
  response when grown as a xenograft (sensitive/resistant): sensitive
[11]
  response when grown as a xenograft (sensitive/resistant): sensitive
[12]
  response when grown as a xenograft (sensitive/resistant): sensitive
[13]
  response when grown as a xenograft (sensitive/resistant): resistant
[14]
  response when grown as a xenograft (sensitive/resistant): resistant
[15]
  response when grown as a xenograft (sensitive/resistant): resistant
[16]
  response when grown as a xenograft (sensitive/resistant): resistant
[17]
  response when grown as a xenograft (sensitive/resistant): resistant
Advanced NSCLC [18]; IDEAL 1 trial, predominantly Japanese
  Objective response rate (Complete Response+Partial Response): 18.4%
Advanced NSCLC [18]; IDEAL 2 trial, predominantly European-derived population
  Objective response rate (Complete Response+Partial Response): 11.8%
Advanced NSCLC [18]; IDEAL trials
  patients overall benefit (objective response, stable disease and/or symptom improvement): approximately 50%
Advanced NSCLC [18]; single agent, advanced NSCLC patients
  toxicity: limited toxicity

Reference: US20080286771A1, “Method of Predicting the Responsiveness of a Tumour to Erbb Receptor Drugs” (priority 2004, published 2008)
